Test results from patent US6503881B2 (priority 1996, dated 2003).
Like-named read-outs stand apart in the source and are kept apart here.

Test system: bacteria
[1] = A. calcoaceticus AC002, agarose dilution
[2] = E. cloacae ECL007, agarose dilution
[3] = E. coli ECO005, agarose dilution
[4] = E. faecalis EFS001, agarose dilution
[5] = E. faecalis EFS008, agarose dilution
[6] = K. pneumoniae KP001, agarose dilution
[7] = P. aeruginosa PA004, agarose dilution
[8] = S. aureus SA014, agarose dilution
[9] = S. aureus SA093, agarose dilution
[10] = S. epidermidis SE010, agarose dilution
[11] = S. maltophilia SMA002, agarose dilution
[12] = S. marcescens SMS003, agarose dilution

| Substance | MIC (E. cloacae ECL007) [µg/mL] | MIC (A. calcoaceticus AC001) [µg/mL] | MIC (E. faecalis EFS002) [µg/mL] | MIC (K. pneumoniae KP002) [µg/mL] | MIC (S. maltophilia SMA001) [µg/mL] | MIC [1] [µg/mL] | MIC [2] [µg/mL] | MIC [3] [µg/mL] | MIC [4] [µg/mL] | MIC [5] [µg/mL] | MIC [6] [µg/mL] | MIC [7] [µg/mL] | MIC [8] [µg/mL] | MIC [9] [µg/mL] | MIC [10] [µg/mL] | MIC [11] [µg/mL] | MIC [12] [µg/mL] | MIC (E. faecium EFM003) [µg/mL] | MIC (S. marcescens SMS004) [µg/mL] | further results |
| --- | --- | --- | --- | --- | --- | --- | --- | --- | --- | --- | --- | --- | --- | --- | --- | --- | --- | --- | --- | --- |
| K R R W V W W V W R L I [MBI 11F4CNR] | 32 | – | – | – | – | – | – | – | – | – | – | – | – | – | – | – | – | – | – | MIC (A. calcoaceticus AC002): 16 µg/mL; MIC (E. coli ECO005): 32 µg/mL; MIC (E. faecalis EFS008): 32 µg/mL; MIC (K. pneumoniae KP001): 32 µg/mL; MIC (P. aeruginosa PA004): 64 µg/mL; MIC (S. aureus SA093): 8 µg/mL; MIC (S. epidermidis SE010): 3 µg/mL; MIC (S. maltophilia SMA002): 32 µg/mL; MIC (S. marcescens SMS003): >128 µg/mL |
| L K K W P W W P W R R K [MBI 11D1CN] | >128 | >128 | 32 | 64 | 64 | – | – | – | – | – | – | – | – | – | – | – | – | – | – | MIC (E. coli ECO002): 16 µg/mL; MIC (E. faecium EFM001): 16 µg/mL; MIC (P. aeruginosa PA003): >128 µg/mL; MIC (S. aureus SA004): 2 µg/mL; MIC (S. epidermidis SE010): 8 µg/mL; MIC (S. marcescens SMS003): >128 µg/mL |
| L R W W W P W R R K [MBI 11G25CN] | – | – | – | – | – | 2 | >128 | 8 | 2 | 16 | 16 | 64 | 2 | 1 | 2 | 32 | >128 | – | – | – |
| P W W P W R R K [MBI 11D3CN] | >128 | >128 | 32 | >128 | 64 | – | – | – | – | – | – | – | – | – | – | – | – | 8 | >128 | MIC (E. coli ECO002): 64 µg/mL; MIC (P. aeruginosa PA024): >128 µg/mL; MIC (S. aureus SA009): 8 µg/mL |
| W R W W K P K W R W P K W [MBI 11J02CN] | – | – | – | – | – | 4 | 64 | 4 | 4 | 16 | 4 | 32 | 2 | 1 | 2 | 8 | >128 | – | – | – |
| W W K K W P W W P W R R K [MBI 11C5CN] | >128 | 32 | 16 | 16 | – | – | – | – | – | – | – | – | – | – | – | – | – | 2 | >28 | MIC (E. coli ECO001): 8 µg/mL; MIC (P. aeruginosa PA003): 64 µg/mL; MIC (S. aureus SA009): 2 µg/mL; MIC (S. epidermidis SE002): 2 µg/mL; MIC (S. maltophilia SMA002): 16 µg/mL |
| W W P W R R K [MBI 11D9M8] | – | – | 128 | – | – | 128 | >128 | >128 | 8 | 128 | >128 | >128 | 128 | 8 | 128 | >128 | >128 | – | – | MIC (E. faecium EFM002): 32 µg/mL; MIC (S. aureus SA007): 32 µg/mL; MIC (S. aureus SA016): 128 µg/mL |
| W W R W P W W P W R R K [MBI 11A10CN] | – | – | – | – | – | 4 | 64 | 16 | 4 | 16 | 16 | 64 | 4 | 2 | 4 | 32 | >128 | – | – | – |
| i L K K W P W W P W R R k [MBI 11E3CN] | >128 | 16 | – | 32 | 32 | – | – | – | – | – | – | – | – | – | – | – | – | 2 | >128 | MIC (E. coli ECO001): 4 µg/mL; MIC (E. faecalis EFS004): 8 µg/mL; MIC (H. influenzae HIN002): >128 µg/mL; MIC (P. aeruginosa PA041): 64 µg/mL; MIC (P. mirabilis PM001): >128 µg/mL; MIC (S. aureus SA010): 2 µg/mL; MIC (S. epidermidis SE002): 1 µg/mL; MIC (S. pneumoniae SBSPN2): >128 µg/mL; MIC (S. pneumoniae SPN044): >128 µg/mL; MIC (S. pyogenes SPY002): 16 µg/mL |
